Entries after “also recorded” stand apart in the source; their conditions may differ.
Legend:
sleep in rats = settings: reported in the literature, ref not given; cited from earlier work
[1] = system: mouse vas deferens from NOP(−/−) mice; assay: Electrically stimulated mouse vas deferens bioassay, NOP(−/−) tissues; settings: mVD from CD-1 NOP(−/−) mice; 5 experiments
Protocol: (§1) This study was approved by the Animal Welfare Body of the University of Ferrara and by the Italian Ministry of Health (authorization number CBCC2.N.BXI). Experiments were performed on an isolated mouse vas deferens. All experiments were conducted with mice bred and housed in the University of Ferrara’s animal facility under specific pathogen-free conditions (SPF). All mice were housed in cages with individual ventilation, with a constant temperature of 21 °C, 60% humidity, and a 12 h light/dark cycle. Food and water were provided ad libitum. CD-1 NOP(+/+) and CD-1 NOP(−/−) male mice, aged 9 to 12 months, were used. Animals were sacrificed on the day of the experiment with CO2 overdose. Bioassay experiments were performed as previously described. The tissues were suspended in 5 mL organ bath containing Krebs solution (NaCl 118.5 […]). The Krebs solution was oxygenated with 95% O2 and 5% CO2 and the temperature set at 33 °C with a resting tension of 0.3 g applied to the tissues. Tissues were stimulated through two platinum electrodes with a supramaximal rectangular pulse of 1 ms duration, 0.05 Hz frequency, and 80 V of amplitude. The electrically evoked contractions were measured isotonically by means of Basile strain gauge transducers (Basile, IT) and a recorder with a Power Lab 8 instrument (ADInstruments, CO, U.S.). Following an equilibration period of approximately 60 min, the contractions induced by electrical field stimulation were stable. At this time, cumulative concentration response curves were carried out.
Concentration-response curves to agonists were analyzed by a four-parameter logistic nonlinear regression model: Effect = baseline + (E max – baseline)/(1 + 10^((logEC50–log[ligand])slope)). […] Experimental data were expressed as mean ± sem of at least 5 experiments. Potency values were expressed as the mean and CL95%. In vitro E max values were analyzed by one-way ANOVA, while in vivo latency data were evaluated by one-way ANOVA followed by Dunnett’s post hoc test. […]

[2] = system: loss of the righting reflex (RR) in mice; assay: Loss of the righting reflex assay in mice; type: in vivo, mouse; settings: 10 nmol, icv
Protocol: All of the experimental procedures adopted in the in vivo studies comply with the European Directive 2010/63/EU on protecting animals used for scientific purposes and Italian Legislative Decree no. 26 of March 4, 2014. These experiments were approved by the Animal Welfare Body of the University of Ferrara and by the Ministry of Health (authorization number 677/2024-PR). In vivo studies have been reported following ARRIVE guidelines. All experiments were conducted with mice bred and housed in the University of Ferrara’s animal facility under specific pathogen-free conditions. All mice were housed in cages with individual ventilation, with a constant temperature of 21 °C, 60% humidity, and a 12 h light/dark cycle. Food and water were provided ad libitum. CD-1 male and female mice, aged 2 to 4 months, were used. Details about the generation of NOP(−/−) and NOP(+/+) mice have been published previously; , these mice have been backcrossed on CD-1 strain in our laboratories. NOP(+/+) and NOP(−/−) littermates were obtained by mating with NOP(±) mice. All mice were genotyped using the polymerase chain reaction previously described. All mice were used only once. The RR assay was performed as previously described. […] Diazepam 15 mg/kg was injected ip. When the animals lost RR, they were placed in a plastic cage, and the time was recorded by an expert observer, blind to drug treatments and/or genotype. Animals were judged to have regained the RR response when they could correct themselves three times within 30 s. Sleeping time is defined as the amount of time between the loss and regaining of the RR; it was rounded to the nearest minute.
(§2) Concentration-response curves to agonists were analyzed by a four-parameter logistic nonlinear regression model: Effect = baseline + (E max – baseline)/(1 + 10^((logEC50–log[ligand])slope)). […] Experimental data were expressed as mean ± sem of at least 5 experiments. Potency values were expressed as the mean and CL95%. In vitro E max values were analyzed by one-way ANOVA, while in vivo latency data were evaluated by one-way ANOVA followed by Dunnett’s post hoc test. The proportion of mice losing the righting reflex was compared by Fisher’s exact test performed on raw data. GraphPad Prism 10.0 software was used for all of the analyses. The terminology employed is consistent with the International Union of Basic and Clinical Pharmacology (IUPHAR) recommendations. ,

[3] = system: mouse vas deferens from NOP(+/+) mice; assay: Electrically stimulated mouse vas deferens bioassay, NOP(+/+) tissues
Protocol: as §1, §2

| Molecule | induced sleep at EEG recordings (sleep in rats) [h] | effect in mVD tissues from NOP(−/−) mice (in words) [1] | mice that lost the RR, 10 nmol ([2]; CD-1 mice, N = 8–10 per group) | duration of action on RR (in words) ([2]; mice that lost the RR) | potency (pEC50) for inhibition of electrically induced contractions ([3]; mVD from CD-1 NOP(+/+) mice, 33 °C, mean (CL95%), 5 experiments) | maximal inhibition of electrically induced contractions ([3]; mVD from CD-1 NOP(+/+) mice, mean ± sem, 5 experiments) [%] | kinetics of action in mVD (in words) ([3]; onset and reversibility upon washout) |
| --- | --- | --- | --- | --- | --- | --- | --- |
| O=C1NCN(c2ccccc2)C12CCN([C@@H]1CC[C@H]3CCCc4cccc1c43)CC2 [Ro 64-6198] | 3 to 5 |  |  |  |  |  |  |
| O=C(O)c1nc2ccccc2n([C@@H]2C[C@H]3CCC[C@@H](C2)N3C2C[C@H]3CCC[C@@H](C2)C3)c1=O (some centres unmarked) [Sunobinop] | 3 to 5 |  |  |  |  |  |  |
| nociceptin/orphanin FQ [N/OFQ] |  | completely inactive | fewer than half | short-lasting action; also recorded: few minutes | 7.59 (7.41–7.77) | 71 ± 4 | fully and rapidly reversible upon washout |

Source: article PMC12621184, “Synthesis and Pharmacological Characterization of Nociceptin/Orphanin FQ Dimeric Ligands” (Journal of Medicinal Chemistry, 2025)
